Data as given in publication PMC10233829 (ACS Omega, 2023).
In brackets after ≈: the same amount, converted by molar mass.

Key:
[1] = system: S. aureus T5591; experiment: MIC, twofold microdilution, clinical strain; format: cell-based, Staphylococcus aureus; conditions: Staphylococcus aureus, T5591, 18 h
[2] = system: PC3 cells; experiment: MTT assay, cytotoxic activity; format: cell-based, human; conditions: MTT, 72 h
Method in brief: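 PC3 cells were grown at 37 °C/5% CO2 and exposed to test compounds. Viability came from MTT reduction, as test absorbance over untreated-control absorbance × 100%.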

[3] = system: S. epidermidis ATCC 12228; experiment: MIC, twofold microdilution, standard strain; format: cell-based; conditions: Staphylococcus epidermidis, ATCC12228, 18 h
[4] = MTT assay, cytotoxic activity; format: cell-based; conditions: human, HaCaT cells (immortal keratinocytes); MTT, 72 h, normal cell line; read-out: IC50 HaCaT
Method in brief: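 MTT assay on cells grown at 37 °C/5% CO2. Viability is expressed as relative MTT reduction: test absorbance divided by untreated-control absorbance, ×100%.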

[5] = system: P. aeruginosa 659; experiment: MIC, twofold microdilution, clinical strain; format: cell-based; conditions: Pseudomonas aeruginosa, 18 h
[6] = system: E. coli 520; experiment: MIC, twofold microdilution, clinical strain; format: cell-based; conditions: Escherichia coli, 18 h
[7] = system: S. aureus ATCC 25923; experiment: MIC, twofold microdilution, standard strain; format: cell-based; conditions: Staphylococcus aureus, ATCC25923, 18 h
[8] = system: S. aureus ATCC 6538; experiment: MIC, twofold microdilution, standard strain; format: cell-based, Staphylococcus aureus; conditions: Staphylococcus aureus, ATCC6538; standard strain, 18 h
[9] = system: P. aeruginosa 37; experiment: MIC, twofold microdilution, clinical strain; format: cell-based; conditions: Pseudomonas aeruginosa, 18 h
[10] = system: S. epidermidis ATCC 35984; experiment: MIC, twofold microdilution, standard strain; format: cell-based; conditions: Staphylococcus epidermidis, ATCC35984, 18 h
[11] = system: S. aureus 5595; experiment: MIC, twofold microdilution, clinical strain; format: cell-based; conditions: Staphylococcus aureus, 18 h
[12] = system: S. aureus NCTC 4163; experiment: MIC, twofold microdilution, standard strain; format: cell-based; conditions: Staphylococcus aureus, NCTC4163, 18 h
[13] = system: P. aeruginosa ATCC 15442; experiment: MIC, twofold microdilution, standard strain; format: cell-based, Pseudomonas aeruginosa; conditions: Pseudomonas aeruginosa, ATCC15442; standard strain, 18 h
[14] = system: K. pneumoniae 510; experiment: MIC, twofold microdilution, clinical strain; format: cell-based, Klebsiella pneumoniae; conditions: Klebsiella pneumoniae, 510; clinical strain, 18 h
[15] = system: P. aeruginosa ATCC 15442 and E. coli ATCC 25922; experiment: MIC, standard Gram-negative rods as a panel; format: cell-based; conditions: P. aeruginosa ATCC 15442, E. coli ATCC 25922; read-out: MIC against standard Gram-negative rods (range over strains)
[16] = system: E. cloacae 8; experiment: MIC, twofold microdilution, clinical strain; format: cell-based, Escherichia cloacae; conditions: Enterobacter cloacae, 8; clinical strain, 18 h
[17] = system: S. epidermidis 4341; experiment: MIC, twofold microdilution, clinical strain; format: cell-based; conditions: Staphylococcus epidermidis, 18 h
[18] = system: S. epidermidis KR4243/1; experiment: MIC, twofold microdilution, clinical strain; format: cell-based; conditions: Staphylococcus epidermidis, 18 h
[19] = system: S. aureus T5595; experiment: MIC, twofold microdilution, clinical strain; format: cell-based, Staphylococcus aureus; conditions: Staphylococcus aureus, T5595, 18 h
[20] = system: S. pasteuri KR 4358; experiment: MIC, twofold microdilution, clinical strain; format: cell-based; conditions: Staphylococcus pasteuri, KR4358, 18 h
[21] = system: M. tuberculosis H37Rv; experiment: Tuberculostatic activity, Microplate Alamar Blue Assay (MIC); format: cell-based, Mycobacterium tuberculosis; conditions: Mycobacterium tuberculosis, H37RV; MABA; read-out: MIC M. tuberculosis H37Rv
[22] = system: S. aureus ATCC 29213; experiment: MIC, twofold microdilution, standard strain; format: cell-based; conditions: Staphylococcus aureus, ATCC29213, 18 h
[23] = system: E. coli 951; experiment: MIC, twofold microdilution, clinical strain; format: cell-based; conditions: Escherichia coli, 18 h
[24] = system: K. pneumoniae 28; experiment: MIC, twofold microdilution, clinical strain; format: cell-based; conditions: Klebsiella pneumoniae, 18 h
[25] = system: clinical bacterial strains; experiment: MIC, clinical isolates as groups of strains; format: cell-based; conditions: S. aureus 180 and 5595
[26] = system: E. coli ATCC 25922; experiment: MIC, twofold microdilution, standard strain; format: cell-based, Escherichia coli; conditions: Escherichia coli, ATCC25922; standard strain, 18 h
[27] = system: S. epidermidis 5253; experiment: MIC, twofold microdilution, clinical strain; format: cell-based, Staphylococcus epidermidis; conditions: Staphylococcus epidermidis, 5253, 18 h
[28] = system: M. tuberculosis Spec. 192; experiment: Tuberculostatic activity, Microplate Alamar Blue Assay (MIC); format: cell-based; conditions: Mycobacterium tuberculosis, MABA, read-out: MIC M. tuberculosis Spec. 192 (sensitive to tuberculostatics)
[29] = system: S. aureus 180; experiment: MIC, twofold microdilution, clinical strain; format: cell-based; conditions: Staphylococcus aureus, 18 h
[30] = system: M. tuberculosis Spec 210; experiment: microbe, parasite or virus in culture; format: cell-based, Mycobacterium tuberculosis; conditions: M. tuberculosis Spec. 210
[31] = system: E. coli 600; experiment: MIC, twofold microdilution, clinical strain; format: cell-based, Escherichia coli; conditions: Escherichia coli, 600, 18 h
[32] = system: E. coli ATCC 25922 biofilm; experiment: Biofilm eradication assay (crystal violet); format: cell-based, Escherichia coli; conditions: 4 MIC
Method: (§1) Three bacterial strains E. coli ATCC 25922, P. aeruginosa ATCC 15442, and S. aureus ATCC 6538 were used to assign biofilm eradication properties of compounds 5, 10, 11, and CP as the reference drug. To quantify the biomass of the bacteria biofilm, the crystal violet method was used with some modifications.[52] The bacteria were incubated to the mid-log phase, diluted to 103 cfu/mL in brain–heart infusion medium, and seeded in a 96-well plate. Bacterial biofilms were formed by overnight incubation at 37 °C with rotation at 140 rpm. After biofilm formation, all wells were washed with PBS to remove nonadherent bacteria cells. […] The biofilms with tested substances were incubated for 20 h at 37 °C with shaking at 140 rpm. The bacterial biofilm was stained with 0.1% (v/v) CV for 10 min. Afterward, the biofilm was rinsed with PBS and dried. To solubilize the adsorbed crystal violet, wells with stained biofilms were incubated in 30% acetic acid. To estimate the total biofilm biomass, optical density (OD) of the resulting solution was measured at 595 nm. Biofilm assays were repeated at least three times on different days, with two technical replicates assessed each time. A minimum eradication concentration (MBEC) was determined as the lowest concentration of compound, which could damage ≥50% of the formed biofilm structure.

[33] = system: S. aureus ATCC 6538 biofilm; experiment: Biofilm eradication assay (crystal violet); format: cell-based, Staphylococcus aureus; conditions: 4–2 MIC
Method: as §1

[34] = system: S. aureus ATCC 6538; experiment: Bacterial growth curve assay (OD600, 18 h); format: cell-based, Staphylococcus aureus; conditions: S. aureus ATCC 6538, 0.1 μg/mL
[35] = system: P. aeruginosa ATCC 15442; experiment: Bacterial growth curve assay (OD600, 18 h); format: cell-based, Pseudomonas aeruginosa; conditions: P. aeruginosa
[36] = system: IL-6 level in PC3 cells; experiment: Interleukin-6 ELISA; format: cell-based, human; conditions: PC3, IC50 concentration, 72 h
Method: (§2) The level of interleukin-6 (IL-6) in PC3 and HaCaT cell lines was measured by commercial human IL-6 ELISA kits Diaclon SAS (Besancon Cedex, France). […] The untreated cells were used as the control. The IL-6 level in a cell culture supernatant was measured using an enzyme-linked immunosorbent assay in accordance with the manufacturer’s instruction. The experiment was repeated three times.

[37] = system: IL-6 level in HaCaT cells; experiment: Interleukin-6 ELISA; format: cell-based, human; conditions: IC50 concentration, 72 h
Method: as §2

[38] = system: Staphylococci (standard strains); experiment: MIC, standard Gram-positive strains as a panel; format: cell-based, S. aureus, S. epidermidis
[39] = molecular target: T1, S. aureus topoisomerase IV (Staphylococcus aureus, UniProt P0C1S7+P0C1U9); experiment: Topoisomerase IV decatenation assay; format: biochemical; conditions: decatenation of kinetoplast DNA; read-out: IC50 S. aureus topoisomerase IV (converted)
T1 construct: purchased Inspiralis, Norwich, UK
Method: Briefly, 1 U of the enzyme (gyrase or topo IV, Inspiralis. Norwich, UK) isolated from S. aureus converts 0.5 mg of relaxed pBR322 DNA to the supercoiled form (gyrase) or decatenates 200 ng of kinetoplast DNA (topo IV). […] The reactions were terminated by adding an equal volume of STEB buffer (40% sucrose, 100 mM Tris–HCl pH 8, 10 mM EDTA, and 0.5 mg/mL bromophenol blue), followed by extraction with 1 volume of chloroform/isoamyl alcohol (24:1). The samples were vortexed and centrifuged, and 20 μL of the aqueous phase of each sample was loaded onto a 1% agarose gel and left for 30 min prior to electrophoresis to allow diffusion of salt. […] Gels were stained with ethidium bromide and visualized under UV light in a transilluminator (ChemiDoc MP, Bio Rad).

[40] = molecular target: S. aureus DNA gyrase (Staphylococcus aureus, UniProt P0A0K8+P20831); experiment: biochemical; conditions: supercoiling of relaxed pBR322
Method: The enzymatic assay was carried using commercial topoisomerases type II as previously described by Alt et al.[55] with some modifications.
Briefly, 1 U of the enzyme (gyrase or topo IV, Inspiralis. Norwich, UK) isolated from S. aureus converts […] of relaxed pBR322 DNA to the supercoiled form (gyrase) or decatenates 200 ng of kinetoplast DNA (topo IV). […] The reactions were terminated by adding an equal volume of STEB buffer (40% sucrose, 100 mM Tris–HCl pH 8, 10 mM EDTA, and 0.5 mg/mL bromophenol blue), followed by extraction with 1 volume of chloroform/isoamyl alcohol (24:1). The samples were vortexed and centrifuged, and 20 μL of the aqueous phase of each sample was loaded onto a 1% agarose gel and left for 30 min prior to electrophoresis to allow diffusion of salt. […] Gels were stained with ethidium bromide and visualized under UV light in a transilluminator (ChemiDoc MP, Bio Rad).

T1 sequence (P0C1U9 whole entry): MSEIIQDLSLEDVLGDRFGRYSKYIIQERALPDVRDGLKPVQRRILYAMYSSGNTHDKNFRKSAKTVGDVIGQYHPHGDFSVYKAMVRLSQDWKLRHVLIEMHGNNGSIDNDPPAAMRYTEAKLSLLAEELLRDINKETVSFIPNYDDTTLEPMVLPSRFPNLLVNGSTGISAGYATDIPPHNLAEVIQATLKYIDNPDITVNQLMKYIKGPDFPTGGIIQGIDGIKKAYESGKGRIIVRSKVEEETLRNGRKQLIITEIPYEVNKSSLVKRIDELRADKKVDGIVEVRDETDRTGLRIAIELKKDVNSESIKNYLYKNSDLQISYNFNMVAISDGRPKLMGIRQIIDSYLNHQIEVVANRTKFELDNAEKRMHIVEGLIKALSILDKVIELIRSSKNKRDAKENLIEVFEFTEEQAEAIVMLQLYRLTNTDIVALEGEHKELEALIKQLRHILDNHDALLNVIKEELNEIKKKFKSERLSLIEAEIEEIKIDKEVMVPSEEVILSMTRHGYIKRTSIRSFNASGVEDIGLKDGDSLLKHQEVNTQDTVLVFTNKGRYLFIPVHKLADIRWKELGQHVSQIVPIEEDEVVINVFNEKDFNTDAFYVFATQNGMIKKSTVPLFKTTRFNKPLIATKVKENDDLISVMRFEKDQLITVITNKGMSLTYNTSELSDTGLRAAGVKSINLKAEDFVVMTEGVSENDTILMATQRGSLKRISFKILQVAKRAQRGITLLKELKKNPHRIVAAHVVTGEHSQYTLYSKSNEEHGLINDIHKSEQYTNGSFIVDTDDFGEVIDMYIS
T1 sequence (P0C1S7 whole entry): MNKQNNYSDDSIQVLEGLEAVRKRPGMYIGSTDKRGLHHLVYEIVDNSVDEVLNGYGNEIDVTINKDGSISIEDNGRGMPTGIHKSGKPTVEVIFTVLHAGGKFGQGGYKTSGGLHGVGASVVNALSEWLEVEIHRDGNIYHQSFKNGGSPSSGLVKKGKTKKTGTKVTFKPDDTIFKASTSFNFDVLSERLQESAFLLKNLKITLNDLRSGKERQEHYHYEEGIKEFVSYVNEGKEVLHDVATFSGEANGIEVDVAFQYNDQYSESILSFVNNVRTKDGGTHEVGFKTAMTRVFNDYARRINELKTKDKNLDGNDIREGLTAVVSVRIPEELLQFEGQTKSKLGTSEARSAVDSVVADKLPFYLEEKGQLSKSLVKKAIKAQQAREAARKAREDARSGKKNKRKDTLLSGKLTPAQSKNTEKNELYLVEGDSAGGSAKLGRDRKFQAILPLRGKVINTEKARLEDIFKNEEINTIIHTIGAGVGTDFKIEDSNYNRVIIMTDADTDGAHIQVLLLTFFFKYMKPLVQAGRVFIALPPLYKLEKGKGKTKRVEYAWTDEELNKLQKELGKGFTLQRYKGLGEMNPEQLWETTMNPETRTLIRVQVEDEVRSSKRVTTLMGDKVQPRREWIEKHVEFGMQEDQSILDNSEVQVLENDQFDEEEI
Chain of S. aureus DNA gyrase (P0A0K8 whole entry): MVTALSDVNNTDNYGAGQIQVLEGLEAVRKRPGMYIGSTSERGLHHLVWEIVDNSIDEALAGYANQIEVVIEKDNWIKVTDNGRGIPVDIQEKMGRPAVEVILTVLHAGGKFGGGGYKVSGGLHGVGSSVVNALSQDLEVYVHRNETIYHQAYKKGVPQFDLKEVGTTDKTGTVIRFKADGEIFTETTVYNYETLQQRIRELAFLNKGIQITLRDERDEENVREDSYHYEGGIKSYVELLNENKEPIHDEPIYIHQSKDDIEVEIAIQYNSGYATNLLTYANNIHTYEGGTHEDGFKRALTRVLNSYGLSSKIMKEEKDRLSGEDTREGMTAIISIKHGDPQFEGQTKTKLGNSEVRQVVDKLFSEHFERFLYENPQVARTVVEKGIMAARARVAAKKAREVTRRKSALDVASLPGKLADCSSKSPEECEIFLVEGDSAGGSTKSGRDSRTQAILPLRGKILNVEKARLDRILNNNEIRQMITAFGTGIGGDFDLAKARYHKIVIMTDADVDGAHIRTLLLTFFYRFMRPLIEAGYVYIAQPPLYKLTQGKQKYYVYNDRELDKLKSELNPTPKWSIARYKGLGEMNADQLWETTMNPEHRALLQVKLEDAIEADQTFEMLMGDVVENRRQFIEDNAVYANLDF
Chain of S. aureus DNA gyrase (P20831 whole entry): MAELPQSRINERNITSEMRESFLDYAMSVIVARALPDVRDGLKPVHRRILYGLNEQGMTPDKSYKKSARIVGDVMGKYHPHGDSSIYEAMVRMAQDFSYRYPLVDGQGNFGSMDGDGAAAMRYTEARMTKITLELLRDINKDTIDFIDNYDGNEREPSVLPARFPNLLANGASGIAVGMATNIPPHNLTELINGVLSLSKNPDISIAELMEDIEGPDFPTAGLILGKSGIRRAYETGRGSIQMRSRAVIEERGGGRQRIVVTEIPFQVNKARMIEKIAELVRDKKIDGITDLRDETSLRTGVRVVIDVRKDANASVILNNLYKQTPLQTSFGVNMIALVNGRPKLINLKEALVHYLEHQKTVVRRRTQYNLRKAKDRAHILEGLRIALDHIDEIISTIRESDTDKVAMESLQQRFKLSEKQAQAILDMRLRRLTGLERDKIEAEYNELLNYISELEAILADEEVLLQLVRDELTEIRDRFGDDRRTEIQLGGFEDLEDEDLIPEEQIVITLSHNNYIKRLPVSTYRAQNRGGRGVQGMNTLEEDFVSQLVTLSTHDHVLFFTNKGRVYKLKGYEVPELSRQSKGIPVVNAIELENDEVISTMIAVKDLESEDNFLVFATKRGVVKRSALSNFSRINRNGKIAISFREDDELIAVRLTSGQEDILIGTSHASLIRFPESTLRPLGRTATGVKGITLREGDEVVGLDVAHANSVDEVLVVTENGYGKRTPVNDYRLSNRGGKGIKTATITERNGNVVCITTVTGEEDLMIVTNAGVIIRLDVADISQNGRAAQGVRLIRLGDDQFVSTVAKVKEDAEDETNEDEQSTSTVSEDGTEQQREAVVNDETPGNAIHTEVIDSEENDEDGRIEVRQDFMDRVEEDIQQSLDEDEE

Row | Structure (SMILES) | MIC [1] | IC50 ([2]; Homo sapiens, PC-3, 72 h) | MIC [3] | IC50 at 72 h [4] | MIC [5] | MIC [6] | MIC [7] | MIC [8] | MIC [9] | MIC [10] | MIC [11] | MIC [12] | MIC [13] | MIC [14] | MIC [15] | MIC [16] | MIC [17] | MIC [18] | MIC [19] | MIC [20] | other results
1 | O=C(O)c1cn(C2CC2)c2cc(N3CCN(CCCCC(=O)N4CCN(c5cc6c(cc5F)c(=O)c(C(=O)O)cn6C5CC5)CC4)CC3)c(F)cc2c1=O [Compound 19, CP–Pentanoyl–CP Dimer] | 0.8 µg/mL (≈ 1.07 µM) | 71.4 ± 3.2 µM | 0.8 µg/mL (≈ 1.07 µM) | 72.9 ± 5.7 µM | 25.6 µg/mL (≈ 34.4 µM) | 3.2 µg/mL (≈ 4.3 µM) | 0.8 µg/mL (≈ 1.07 µM) | 0.4 µg/mL (≈ 0.537 µM) | > 25.6 µg/mL | 0.8 µg/mL (≈ 1.07 µM) | 0.8 µg/mL (≈ 1.07 µM) | 0.4 µg/mL (≈ 0.537 µM) | 3.2 µg/mL (≈ 4.3 µM) | > 25.6 µg/mL | ≤ 1 µg/mL | 3.2 µg/mL (≈ 4.3 µM) | > 25.6 µg/mL | 1.6 µg/mL (≈ 2.15 µM) | 1.6 µg/mL (≈ 2.15 µM) | 1.6 µg/mL (≈ 2.15 µM) | melting point: 170.3 to 171.9 °C; MIC [21]: 8 µg/mL (≈ 10.7 µM); MIC [22]: 0.8 µg/mL (≈ 1.07 µM); MIC [23]: 25.6 µg/mL (≈ 34.4 µM); MIC [24]: > 25.6 µg/mL; share of CP inhibitory activity [25]: 62.5%; MIC [26]: 0.4 µg/mL (≈ 0.537 µM); MIC [27]: > 25.6 µg/mL; MIC [28]: 8 µg/mL (≈ 10.7 µM); MIC [29]: 1.6 µg/mL (≈ 2.15 µM); fold more effective than the reference tuberculostatics [30]: 8–32 fold; MIC [31]: 3.2 µg/mL (≈ 4.3 µM)
2 | O=C(O)c1cn(C2CC2)c2cc(N3CCNCC3)c(F)cc2c1=O [CP, ciprofloxacin, reference compound] |  | > 100 µM |  |  |  |  |  |  |  |  |  |  |  |  |  |  |  |  |  |  | eradication of the biofilm formed by E. coli [32]: approx. 20%; IC50 [2]: 100 ± 3.6 µM; elimination of the mature biofilm of S. aureus ATCC 6538 [33]: 19–25%; bacterial growth limited up to [34]: up to 12 h; lag phase elongated up to ([35]; 0.05 μg/mL): up to 14 h; elongation of the exponential phase to ([35]; 0.03–0.006 μg/mL): 9 h; decrease of IL-6 release as compared to the control [36]: 2.4 times; effect on IL-6 in human keratinocytes [37]: stimulated human keratinocytes to produce IL-6
3 | C=CC(=O)N1CCN(c2cc3c(cc2F)c(=O)c(C(=O)O)cn3C2CC2)CC1 [Compound 1, 7-(4-Acryloyl-piperazin-1-yl)-1-cyclopropyl-6-fluoro-4-oxo-1,4-dihydro-quinoline-3-carboxylic Acid] | 0.8 µg/mL (≈ 2.08 µM) | 68.7 ± 3.4 µM | 0.1 µg/mL (≈ 0.259 µM) | 100 ± 1.2 µM | > 25.6 µg/mL | 1.6 µg/mL (≈ 4.15 µM) | 0.05 µg/mL (≈ 0.13 µM) | 0.05 µg/mL (≈ 0.13 µM) | > 25.6 µg/mL | 0.05 µg/mL (≈ 0.13 µM) | 0.8 µg/mL (≈ 2.08 µM) | 0.05 µg/mL (≈ 0.13 µM) | 3.2 µg/mL (≈ 8.3 µM) | > 25.6 µg/mL | ≤ 1 µg/mL | 3.2 µg/mL (≈ 8.3 µM) | > 25.6 µg/mL | 0.4 µg/mL (≈ 1.04 µM) | 0.4 µg/mL (≈ 1.04 µM) | 0.4 µg/mL (≈ 1.04 µM) | times higher potency than CP ([38]; S. aureus NCTC 4163 and ATCC 25923): 5–10 times; MIC ([38]; read-out: MIC toward standard Staphylococci (range over strains)): 0.05 to 0.4 µg/mL (≈ 0.13 to 1.04 µM); fold more active than CP toward standard Staphylococci ([38]; standard Gram-positive strains of Table 1): 1.25–10 fold; IC50 [39]: 25.9 µM; MIC [21]: 4 µg/mL (≈ 10.4 µM); MIC [22]: 0.1 µg/mL (≈ 0.259 µM); MIC [23]: > 25.6 µg/mL; MIC [24]: > 25.6 µg/mL; share of CP inhibitory activity [25]: 62.5%; MIC [26]: 0.1 µg/mL (≈ 0.259 µM); MIC [27]: > 25.6 µg/mL; MIC [28]: 4 µg/mL (≈ 10.4 µM); IC50 [40]: 23.9 µM; MIC [29]: 0.8 µg/mL (≈ 2.08 µM); fold more effective than the reference tuberculostatics [30]: 8–32 fold; MIC [31]: > 25.6 µg/mL
